Reference: US7268152B2, “Glucocorticoid mimetics, methods of making them, pharmaceutical compositions, and uses thereof” (Boehringer Ingelheim Pharmaceuticals, Inc., priority 2002, dated 2007)

The compounds below were run against T1, human glucocorticoid receptor (GR) complex (Homo sapiens, UniProt P04150) (assay: Glucocorticoid receptor competitive binding assay (fluorescence polarization)). Conditions: competition with TAMRA-labeled dexamethasone.
T1 construct: made in house; host or cells: insect expression system (baculovirus lysate)
T1 sequence (P04150 1-777): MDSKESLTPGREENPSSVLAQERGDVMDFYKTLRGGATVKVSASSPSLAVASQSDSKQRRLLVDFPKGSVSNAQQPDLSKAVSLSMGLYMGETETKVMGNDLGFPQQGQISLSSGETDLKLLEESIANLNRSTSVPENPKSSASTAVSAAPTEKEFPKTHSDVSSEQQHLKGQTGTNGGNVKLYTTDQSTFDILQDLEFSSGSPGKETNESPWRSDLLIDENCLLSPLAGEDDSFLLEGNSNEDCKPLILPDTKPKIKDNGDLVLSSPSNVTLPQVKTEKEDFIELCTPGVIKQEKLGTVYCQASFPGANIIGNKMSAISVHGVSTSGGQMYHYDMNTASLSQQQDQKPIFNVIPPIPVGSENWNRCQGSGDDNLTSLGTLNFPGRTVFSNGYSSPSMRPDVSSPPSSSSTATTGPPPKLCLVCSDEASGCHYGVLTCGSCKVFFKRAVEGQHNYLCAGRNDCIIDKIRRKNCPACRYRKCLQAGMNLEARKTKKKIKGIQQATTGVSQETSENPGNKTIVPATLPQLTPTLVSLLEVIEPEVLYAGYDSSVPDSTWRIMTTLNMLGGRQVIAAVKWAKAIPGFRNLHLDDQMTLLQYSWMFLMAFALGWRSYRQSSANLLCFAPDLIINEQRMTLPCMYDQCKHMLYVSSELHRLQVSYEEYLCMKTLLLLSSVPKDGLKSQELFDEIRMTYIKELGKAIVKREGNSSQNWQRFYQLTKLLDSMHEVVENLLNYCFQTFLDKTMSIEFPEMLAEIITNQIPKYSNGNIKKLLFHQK
Protocol: Compounds of the invention were evaluated for binding to the steroid receptor by a fluorescence polarization competitive binding assay. Detailed descriptions for preparation of recombinant glucocorticoid receptor (GR) complex used in the assay is described in U.S. provisional application No. 60/291,877, filed May 18, 2001, and incorporated herein by reference in its entirety. Preparation of the tetramethyl rhodamine (TAMRA)-labeled dexamethasone probe was accomplished using a standard literature procedure (M. Pons et al., J. Steroid Biochem., 1985, 22, pp. 267-273).
A. Glucocorticoid Receptor Competitive Binding Assay
Step 1. Characterization of the Fluorescent Probe
The wavelengths for maximum excitation and emission of the fluorescent probe should first be measured. An example of such a probe is rhodamine (TAMRA)-labeled dexamethasone.
The affinity of the probe for the steroid receptor was then determined in a titration experiment. The fluorescence polarization value of the probe in assay buffer was measured on an SLM-8100 fluorometer using the excitation and emission maximum values described above. Aliquots of expression vector lysate were added and fluorescence polarization was measured after each addition until no further change in polarization value was observed. Non-linear least squares regression analysis was used to calculate the dissociation constant of the probe from the polarization values obtained for lysate binding to the probe.
Step 2. Screeningfor Inhibitors of Probe Binding
(§1) This assay uses fluorescence polarization (FP) to quantitate the ability of test compounds to compete with tetramethyl rhodamine (TAMRA)-labeled dexamethasone for binding to a human glucocorticoid receptor (GR) complex prepared from an insect expression system. The assay buffer was: 10 mM TES, 50 mM KCl, 20 mM Na2MoO4.2H2O, 1.5 mM EDTA, 0.04% w/v CHAPS, 10% v/v glycerol, 1 mM dithiothreitol, pH 7.4. Test compounds were dissolved to 1 mM in neat DMSO and then further diluted to 10×assay concentration in assay buffer supplemented with 10% v/v DMSO. Test compounds were serially diluted at 10×assay concentrations in 10% DMSO-containing buffer in 96-well polypropylene plates. Binding reaction mixtures were prepared in 96-well black Dynex microtiter plates by sequential addition of the following assay components to each well: 15 μL of 10×test compound solution, 85 μL of GR-containing baculovirus lysate diluted 1:170 in assay buffer, and 50 μL of 15 nM TAMRA-labeled dexamethasone. Positive controls were reaction mixtures containing no test compound; negative controls (blanks) were reaction mixtures containing 0.7 μM to 2 μM dexamethasone. The binding reactions were incubated for 1 hour at room temperature and then read for fluorescence polarization in the LJL Analyst set to 550 nm excitation and 580 nm emission, with the Rhodamine 561 dichroic mirror installed. IC50 values were determined by iterative non-linear curve fitting of the FP signal data to a 4-parameter logistic equation.

Q: `COc1ccc(F)cc1C(C)(C)CC(O)(Cc1cc(F)cc(C(F)(F)F)c1)C(F)(F)F` (stereo not drawn) [1,1,1-Trifluoro-4-(5-fluoro-2-methoxyphenyl)-2-(3-fluoro-5-trifluoromethylbenzyl)-4-methylpentan-2-ol] was tested. Which IC50 did it give?
A: ≤ 100 nM

Q: How did the IC50 turn out when `COc1ccc(F)cc1C(C)(C)CC(O)(Cc1ccc(C)c(C)c1)C(F)(F)F` (stereo not drawn) [2-(3,4-Dimethylbenzyl)-1,1,1-trifluoro-4-(5-fluoro-2-methoxyphenyl)-4-methylpentan-2-ol] was run?
A: ≤ 100 nM

Each compound was assayed on glucocorticoid receptor (assay: One or more of the above assays (GR binding and GR cell assays; not specified which)). Conditions: in one or more of the above assays.
Assay type: cell-based
Protocol: as §1, with “Binding reaction mixtures were prepared in 96-well black Dynex microtiter plates by sequential addition of the following assay components to each well: 15 μL of 10×test compound solution, 85 μL of GR-containing baculovirus lysate diluted 1:170 in assay buffer, and 50 μL of 15 nM TAMRA-labeled dexamethasone.” left out, “The binding reactions were incubated for 1 hour at room temperature and then read for fluorescence polarization in the LJL Analyst set to 550 nm excitation and 580 nm emission, with the Rhodamine 561 dichroic mirror installed.” left out
B. Glucocorticoid Receptor Cell Assays
1. Induction of Aromatase in Fibroblasts (Cell Assay for Transactivation)
Dexamethasone, a synthetic ligand to the glucocorticoid receptor (GR), induces expression of aromatase in human foreskin fibroblast cells. The activity of aromatase is measured by the conversion of testosterone to estradiol in culture media.
On the day of the experiment, the media in the wells is replaced with fresh media. Cells are treated with test compounds to final concentrations of 10^−5 M to 10 ^−8 M, and testosterone to a final concentration of 300 ng/mL. Each well has a total volume of 100 μL. Samples are made in duplicates. Control wells include: (a) wells that receive testosterone only, and (b) wells that receive testosterone plus 2 μM of dexamethasone to provide maximum induction of aromatase. Plates are incubated at 37° C. overnight (15 to 18 hours), and supernatants are harvested at the end of incubation. […] The amount of estradiol is inversely proportional to the ELISA signals in each well. The extent of aromatase induction by test compounds is expressed as a relative percentage to dexamethasone. EC50 values of test compounds are derived by non-linear curve fitting.
2. Inhibition of IL-6 Production in Fibroblasts (Cell Assay for Transrepression)
Human foreskin fibroblast cells produce IL-6 in response to stimulation by pro-inflammatory cytokine IL-1.
On the next day, media in the wells is replaced with fresh media. Cells are treated with IL-1 (rhIL-1α, R&D Systems Cat. No. 200-LA) to a final concentration of 1 ng/mL, and with test compounds to final concentrations of 10 ^−5 M to 10 ^−8 M, in a total volume of 200 μL per well. Samples are done in duplicates. […] Positive control wells receive IL-1 only and represent maximum (or 100%) amount of IL-6 production. Plates are incubated at 37° C. overnight (15 to 18 hours), and supernatants are harvested at the end of incubation. IL-6 levels in the supernatants are determined by the ELISA kits for IL-6 (MedSystems Diagnostics GmbH, Vienna, Austria, Cat. No. BMS213TEN) according to manufacture's instructions. The extent of inhibition of IL-6 by test compounds is expressed in percentage relative to positive controls. IC50 values of test compounds are derived by non-linear curve fitting.
Evaluation of agonist or antagonist activity of compounds binding to the glucocorticoid receptor may be determined by any of the assays.
3. Modulation of Tyrosine Aminotransferase (TAT) Induction in Rat Hepatoma Cells
Testing of compounds for agonist or antagonist activity in induction of tyrosine aminotransferase (TAT) in rat hepatoma cells.
H4-II-E-C3 cells were incubated overnight in 96 well plates (20,000 cells/100 μL/well) in MEM medium containing 10% heat inactivated FBS and 1% nonessential amino acids. On the next day, cells were stimulated with the indicated concentrations of dexamethasone or test compound (dissolved in DMSO, final DMSO concentration 0.2%) for 18 hours. Control cells were treated with 0.2% DMSO.

Q: Which “activity as agonists of the glucocorticoid receptor function” value (“activity as agonists” for short) does the source give for `COc1ccc(F)cc1C(C)(C)CC(O)(Cc1ccc(/C=N/O)cc1Cl)C(F)(F)F` (stereo not drawn) [3-Chloro-4-[4-(5-fluoro-2-methoxyphenyl)-2-hydroxy-4-methyl-2-trifluoromethylpentyl]benzaldehyde oxime] here?
A: activity as agonists

Q: For `CC(C)(CC(O)(Cc1ccc(C#N)cc1Cl)C(F)(F)F)c1cc(Br)cc2c1OCC2` (stereo not drawn) [4-[4-(5-Bromo-2,3-dihydrobenzofuran-7-yl)-2-hydroxy-4-methyl-2-trifluoromethylpentyl]-3-chlorobenzonitrile], which “activity as agonists” value is on record?
A: activity as agonists

Q: For `CC(C)(CC(O)(Cc1ccc(C#N)c2ccccc12)C(F)(F)F)c1cccc2c1OCC2` (stereo not drawn) [4-[4-(2,3-Dihydrobenzofuran-7-yl)-2-hydroxy-4-methyl-2-trifluoromethylpentyl]naphthalene-1-carbonitrile], which “activity as agonists” value is on record?
A: activity as agonists

Q: How did the “activity as agonists” value turn out when `COc1cc(F)c(Br)cc1C(C)(C)CC(O)(Cc1ccc(C#N)cc1Cl)C(F)(F)F` (stereo not drawn) [4-[4-(5-Bromo-4-fluoro-2-methoxyphenyl)-2-hydroxy-4-methyl-2-trifluoromethylpentyl]-3-chlorobenzonitrile] was run?
A: activity as agonists

Q: Which “activity as agonists” value does the source give for `COc1ccc(F)cc1C(C)(C)CC(O)(Cc1ccc(C(C)=O)cc1Cl)C(F)(F)F` (stereo not drawn) [1-{3-Chloro-4-[4-(5-fluoro-2-methoxyphenyl)-2-hydroxy-4-methyl-2-trifluoromethylpentyl]phenyl}ethanone] here?
A: activity as agonists

Q: How did the “activity as agonists” value turn out when `Cc1cccc(C(C)(C)CC(O)(Cc2ccc(C#N)cc2Cl)C(F)(F)F)c1` (stereo not drawn) [3-Chloro-4-(2-hydroxy-4-methyl-4-m-tolyl-2-trifluoromethylpentyl)benzonitrile] was run?
A: activity as agonists

Q: How did the “activity as agonists” value turn out when `N#Cc1ccc(CC(O)(CC2(c3cc(F)ccc3Cl)CCC2)C(F)(F)F)c(Cl)c1` (stereo not drawn) [3-Chloro-4-{2-[1-(2-chloro-5-fluorophenyl)cyclobutylmethyl]-3,3,3-trifluoro-2-hydroxypropyl}benzonitrile] was run?
A: activity as agonists

Q: Which “activity as agonists” value does the source give for `CCc1cccc(C(C)(C)CC(O)(Cc2ccc(C#N)cc2Cl)C(F)(F)F)c1O` (stereo not drawn) [3-Chloro-4-[4-(3-ethyl-2-hydroxyphenyl)-2-hydroxy-4-methyl-2-trifluoromethylpentyl]benzonitrile] here?
A: activity as agonists

Q: With `COc1cc(F)ccc1C(C)(C)CC(O)(Cc1ccc(C#N)cc1Cl)C(F)(F)F` (stereo not drawn) [3-Chloro-4-[4-(4-fluoro-2-methoxyphenyl)-2-hydroxy-4-methyl-2-trifluoromethylpentyl]benzonitrile] as the compound, how does the “activity as agonists” value read?
A: activity as agonists

Q: How did the “activity as agonists” value turn out when `COc1ccc(F)cc1C(C)(C)CC(O)(Cc1ccc(Cl)cc1)C(F)(F)F` (stereo not drawn) [2-(4-Chlorobenzyl)-1,1,1-trifluoro-4-(5-fluoro-2-methoxyphenyl)-4-methylpentan-2-ol] was run?
A: activity as agonists

Q: How did the “activity as agonists” value turn out when `Cc1cc2c(c(C(C)(C)CC(O)(Cc3ccc(C#N)cc3Cl)C(F)(F)F)c1)OCC2` (stereo not drawn) [3-Chloro-4-[2-hydroxy-4-methyl-4-(5-methyl-2,3-dihydrobenzofuran-7-yl)-2-trifluoromethylpentyl]benzonitrile] was run?
A: activity as agonists

Q: With `Cc1ccccc1C(C)(C)CC(O)(Cc1ccc(C#N)cc1Cl)C(F)(F)F` (stereo not drawn) [3-Chloro-4-(2-hydroxy-4-methyl-4-o-tolyl-2-trifluoromethylpentyl)benzonitrile] as the compound, how does the “activity as agonists” value read?
A: activity as agonists

Q: `Cc1ccc(F)cc1C(C)(C)CC(O)(Cc1ccc(C#N)cc1Cl)C(F)(F)F` (stereo not drawn) [3-Chloro-4-[4-(5-fluoro-2-methylphenyl)-2-hydroxy-4-methyl-2-trifluoromethylpentyl]benzonitrile] was tested. Which “activity as agonists” value did it give?
A: activity as agonists
